PMC10517971, “An inverse agonist of orphan receptor GPR61 acts by a G protein-competitive allosteric mechanism” (Nature Communications, 2023)

Experiments:
Human PED9A1 = Human PED9A1 (Homo sapiens, UniProt O76083); assay: Phosphodiesterase Assay (SPA); type: biochemical
Cav1.2 = Cav1.2 (Homo sapiens, UniProt Q13936); assay: cell-based
From the text: 105 hERG, Nav1.5 and Cav1.2 Ion Channel Profiling
106 Ionic curr ents wer e evalu ated in the whole-cell con figuration using the Qube384 automated planar
107 patch clamp platform (Sophion Bioscience A/S, Ballerup, Denmark). […]
113 experiments, the ext ernal solution was composed of (in mM): 137.9 NaCl, 5.3 KCl, 0.49 MgCl2,
115 mOsM. The internal solution contained (in mM ): 27 CF, 112 CsCl, 2 MgCl2, 10 EGTA, 10
116 HEPES, 2 Na2ATP, pH 7.2, 305 mOsM. […]
123 at a rate of 0.05 Hz. Peak hERG current was measured during the ramp. The Cav1.2 current was
124 elicited by a voltage step to 0 mV for 150 ms from a holding potential of -40 mV. Voltage steps
125 were repeated at 0.05 Hz, and Cav1.2 amplitude was measured as the peak current at 0 mV. For
126 Nav1.5 current, from a holding potential of - 80 mV, a 200 ms prepulse to - 120 mV was used to
127 homogenize channel inactivation, followed by a 40 ms step to a test potential of - 15 mV.
128 Membrane potential was further depolarized to +40 mV for 200 ms to completely inactivate the
129 peak Nav1.5 current, followed by a ramp from +40 mV to - 80 mV (-1.2 mV/ms). This voltage
130 pattern was repeated at 0.1 Hz, with peak Nav1.5 defined as the maximum current during the step
131 to - 15 mV. All studies were conducted at 23° C.
132 Compounds were dissol ved and initially diluted in dimethyl sulfoxide (DMSO), with a final
133 dilution in external solution to generate final working concent rations. The final DMSO
134 concentration in all experiments was 0.33% (v/v).
135 For all protocols three vehicle periods each lasting 5 minutes were applied to establish a stable
136 baseline. For the standard protocol this was followed by the addition of increasing concentrations
137 of test compound, with each exposure lasting 5 minutes. For the “extended” protocol following
138 the three- vehi cle additional each well subsequentl y received a single concentration of compound.
139 This application was repeated three times for each well, via a flowthrough addition where the
140 solution was replaced wi th the same compound concentration with each addition. Each exposure
142 Patch clamp data were analyzed using Assay Software 6.4.72 (Sophion Bioscience A/S, Ballerup,
143 Denmark). Current amplitudes were determined by averaging the last 4 currents under each test
144 condition. The percentage inhibition of each compound was determined by taking the ratio of
145 current amplitude measured in the presence of various concentrations of the test compound
146 (ICompound) versus the vehicle control current (IVehicle):
148 A dose-response curve was generat ed and fit to the Hill equation by the Sophion Analyzer software
149 to determine an IC50 value for each compound. The minimum and the slope of the fit were free
150 fitted, with the top being fixed to 100% inhibition. […]

Cav1.2, sequence (Q13936 whole entry): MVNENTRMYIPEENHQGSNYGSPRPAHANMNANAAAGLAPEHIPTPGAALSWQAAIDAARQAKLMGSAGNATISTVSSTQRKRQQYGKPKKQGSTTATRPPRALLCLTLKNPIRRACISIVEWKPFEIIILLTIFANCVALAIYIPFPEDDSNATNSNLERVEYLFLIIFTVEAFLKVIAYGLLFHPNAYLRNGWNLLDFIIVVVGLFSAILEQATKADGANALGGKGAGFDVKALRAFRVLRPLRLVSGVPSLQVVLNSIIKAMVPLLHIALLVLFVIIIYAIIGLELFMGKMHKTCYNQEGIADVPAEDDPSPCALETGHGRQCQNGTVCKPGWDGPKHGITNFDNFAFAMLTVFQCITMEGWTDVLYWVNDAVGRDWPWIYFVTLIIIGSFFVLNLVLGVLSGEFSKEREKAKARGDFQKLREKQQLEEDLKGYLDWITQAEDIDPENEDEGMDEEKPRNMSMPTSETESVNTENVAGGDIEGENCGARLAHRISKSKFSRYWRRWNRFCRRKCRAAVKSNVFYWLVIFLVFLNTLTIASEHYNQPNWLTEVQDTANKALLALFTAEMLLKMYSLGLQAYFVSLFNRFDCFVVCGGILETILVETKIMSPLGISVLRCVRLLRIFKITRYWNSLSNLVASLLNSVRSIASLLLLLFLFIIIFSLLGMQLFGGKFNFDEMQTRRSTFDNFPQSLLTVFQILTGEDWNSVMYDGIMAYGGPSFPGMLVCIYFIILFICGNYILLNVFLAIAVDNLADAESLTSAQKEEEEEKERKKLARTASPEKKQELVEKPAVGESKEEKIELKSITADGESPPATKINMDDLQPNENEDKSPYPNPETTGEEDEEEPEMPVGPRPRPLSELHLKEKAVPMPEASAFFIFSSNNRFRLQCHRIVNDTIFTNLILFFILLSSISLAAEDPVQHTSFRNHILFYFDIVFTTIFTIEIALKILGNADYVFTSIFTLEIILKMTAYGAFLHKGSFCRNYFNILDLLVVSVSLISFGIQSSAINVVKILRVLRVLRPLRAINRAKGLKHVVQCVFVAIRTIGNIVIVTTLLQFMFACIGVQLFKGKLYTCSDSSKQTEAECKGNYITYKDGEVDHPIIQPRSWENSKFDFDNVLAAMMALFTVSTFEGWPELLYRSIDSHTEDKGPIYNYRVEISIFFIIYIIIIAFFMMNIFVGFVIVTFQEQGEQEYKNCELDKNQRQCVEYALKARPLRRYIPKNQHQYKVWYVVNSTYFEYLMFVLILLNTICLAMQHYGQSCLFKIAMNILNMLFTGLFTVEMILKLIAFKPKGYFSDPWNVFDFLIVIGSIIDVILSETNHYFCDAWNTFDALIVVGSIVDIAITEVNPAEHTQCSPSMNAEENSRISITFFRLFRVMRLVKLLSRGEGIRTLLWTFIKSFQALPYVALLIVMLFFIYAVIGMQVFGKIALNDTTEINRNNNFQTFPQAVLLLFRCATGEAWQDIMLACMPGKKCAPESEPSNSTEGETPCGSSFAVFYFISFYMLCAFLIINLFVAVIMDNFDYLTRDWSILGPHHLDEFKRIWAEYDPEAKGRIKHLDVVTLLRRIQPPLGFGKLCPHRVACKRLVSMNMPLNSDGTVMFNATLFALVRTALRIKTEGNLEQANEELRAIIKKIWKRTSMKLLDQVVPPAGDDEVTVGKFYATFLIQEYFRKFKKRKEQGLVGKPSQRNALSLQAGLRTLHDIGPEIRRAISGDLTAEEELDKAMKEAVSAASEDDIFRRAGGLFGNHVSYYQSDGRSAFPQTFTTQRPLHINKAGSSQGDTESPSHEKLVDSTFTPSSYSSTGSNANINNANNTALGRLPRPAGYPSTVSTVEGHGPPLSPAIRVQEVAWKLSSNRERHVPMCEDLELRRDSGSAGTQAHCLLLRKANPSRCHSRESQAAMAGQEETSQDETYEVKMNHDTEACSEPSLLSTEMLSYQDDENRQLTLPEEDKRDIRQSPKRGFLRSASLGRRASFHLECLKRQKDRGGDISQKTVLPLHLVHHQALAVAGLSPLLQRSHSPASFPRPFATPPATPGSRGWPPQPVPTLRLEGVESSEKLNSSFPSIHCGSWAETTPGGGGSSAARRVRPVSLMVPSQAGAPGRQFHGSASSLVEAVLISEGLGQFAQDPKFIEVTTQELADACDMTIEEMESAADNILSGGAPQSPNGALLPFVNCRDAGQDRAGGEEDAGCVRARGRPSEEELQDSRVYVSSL
Cav1.2, sequence (Q08289 whole entry partner): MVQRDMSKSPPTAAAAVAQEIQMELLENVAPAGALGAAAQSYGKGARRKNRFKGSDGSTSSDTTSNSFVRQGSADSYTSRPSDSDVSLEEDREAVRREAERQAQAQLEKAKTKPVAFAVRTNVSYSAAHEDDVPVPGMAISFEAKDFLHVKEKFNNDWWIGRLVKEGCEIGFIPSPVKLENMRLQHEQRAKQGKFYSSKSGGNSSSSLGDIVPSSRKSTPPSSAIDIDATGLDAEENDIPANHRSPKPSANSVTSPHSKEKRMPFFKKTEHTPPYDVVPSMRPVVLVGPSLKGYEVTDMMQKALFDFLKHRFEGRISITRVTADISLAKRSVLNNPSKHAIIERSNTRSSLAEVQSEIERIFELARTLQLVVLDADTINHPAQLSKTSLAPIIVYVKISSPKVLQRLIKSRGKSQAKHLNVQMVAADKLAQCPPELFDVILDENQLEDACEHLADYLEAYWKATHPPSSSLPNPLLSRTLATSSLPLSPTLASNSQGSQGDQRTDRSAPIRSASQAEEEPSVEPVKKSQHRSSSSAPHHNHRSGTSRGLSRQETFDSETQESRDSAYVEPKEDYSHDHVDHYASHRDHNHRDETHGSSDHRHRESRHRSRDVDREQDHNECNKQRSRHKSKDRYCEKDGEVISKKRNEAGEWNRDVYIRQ
Cav1.2, sequence (P54289 25-956 partner limits assumed): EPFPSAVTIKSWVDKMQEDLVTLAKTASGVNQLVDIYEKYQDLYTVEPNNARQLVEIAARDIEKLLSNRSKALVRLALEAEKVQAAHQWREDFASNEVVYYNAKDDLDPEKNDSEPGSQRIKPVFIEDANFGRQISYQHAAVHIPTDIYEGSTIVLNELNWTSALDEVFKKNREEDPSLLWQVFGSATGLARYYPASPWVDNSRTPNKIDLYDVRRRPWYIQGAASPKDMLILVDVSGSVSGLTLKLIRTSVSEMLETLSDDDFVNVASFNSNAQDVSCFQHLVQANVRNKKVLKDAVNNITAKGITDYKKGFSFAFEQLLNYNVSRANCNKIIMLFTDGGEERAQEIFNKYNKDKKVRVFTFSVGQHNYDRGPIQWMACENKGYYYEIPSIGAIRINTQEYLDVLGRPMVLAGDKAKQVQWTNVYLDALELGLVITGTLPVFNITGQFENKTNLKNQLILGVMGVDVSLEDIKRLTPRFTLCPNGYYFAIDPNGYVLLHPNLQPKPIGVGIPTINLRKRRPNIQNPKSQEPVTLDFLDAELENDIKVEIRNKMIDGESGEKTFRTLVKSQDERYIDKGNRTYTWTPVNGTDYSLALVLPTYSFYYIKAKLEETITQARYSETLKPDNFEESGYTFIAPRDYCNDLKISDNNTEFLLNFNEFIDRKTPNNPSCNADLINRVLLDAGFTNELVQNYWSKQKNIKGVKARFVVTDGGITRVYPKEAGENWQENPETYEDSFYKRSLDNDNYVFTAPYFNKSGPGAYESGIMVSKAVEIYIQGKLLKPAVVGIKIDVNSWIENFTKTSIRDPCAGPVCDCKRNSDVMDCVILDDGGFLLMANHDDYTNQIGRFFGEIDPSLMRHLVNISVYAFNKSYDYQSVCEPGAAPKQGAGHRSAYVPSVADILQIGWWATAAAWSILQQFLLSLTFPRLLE
Cav1.2, sequence (P54289 957-1103 partner limits assumed): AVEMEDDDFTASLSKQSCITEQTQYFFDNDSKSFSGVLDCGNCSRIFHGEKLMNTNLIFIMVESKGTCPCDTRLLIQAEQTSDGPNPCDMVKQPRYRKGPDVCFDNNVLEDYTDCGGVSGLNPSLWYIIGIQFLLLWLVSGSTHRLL
Human PED9A1, sequence (O76083 whole entry): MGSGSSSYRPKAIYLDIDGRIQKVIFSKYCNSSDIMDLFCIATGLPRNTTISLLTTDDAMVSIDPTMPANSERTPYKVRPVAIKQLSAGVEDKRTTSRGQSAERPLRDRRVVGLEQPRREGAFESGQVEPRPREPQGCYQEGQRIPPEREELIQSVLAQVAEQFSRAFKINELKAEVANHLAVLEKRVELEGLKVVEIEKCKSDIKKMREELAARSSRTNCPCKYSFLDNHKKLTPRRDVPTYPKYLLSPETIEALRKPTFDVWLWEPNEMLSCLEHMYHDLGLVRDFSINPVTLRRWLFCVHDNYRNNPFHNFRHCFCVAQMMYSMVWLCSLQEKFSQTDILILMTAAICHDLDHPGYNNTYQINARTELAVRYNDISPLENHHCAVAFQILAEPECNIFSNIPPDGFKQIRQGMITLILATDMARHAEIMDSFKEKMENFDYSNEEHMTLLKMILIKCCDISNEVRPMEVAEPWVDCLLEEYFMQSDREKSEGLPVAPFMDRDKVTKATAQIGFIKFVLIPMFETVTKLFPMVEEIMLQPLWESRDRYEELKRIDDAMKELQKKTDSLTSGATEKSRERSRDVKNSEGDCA

## CCOc1cc(C)nc(N(CCOC)S(=O)(=O)c2ccc(NCc3c(F)cncc3F)nc2OC)n1 [Compound 1]
Human PED9A1
  IC50: > 200 µM
Cav1.2; IC50 (nM), Calcium Channel Cav1 (so in the source), standard protocol
  IC50: 44800 nM
Cav1.2; Ion Channel Extended Protocol IC50 (nM), Period 1st, Cav1.2, extended protocol, 1st period
  IC50: 21100 nM
Cav1.2; Ion Channel Extended Protocol IC50 (nM), Period 2nd, Cav1.2, extended protocol, 2nd period
  IC50: 10700 nM
Cav1.2; Ion Channel Extended Protocol IC50 (nM), Period 3rd, Cav1.2, extended protocol, 3rd period
  IC50: 5930 nM
